Reference: article PMC9604483, “Crystal Structure of CYP3A4 Complexed with Fluorol Identifies the Substrate Access Channel as a High-Affinity Ligand Binding Site” (International Journal of Molecular Sciences, 2022)
Read-outs that look alike come from different tables or passages of the source.

Tests used:
CYP3A4 = CYP3A4 (Homo sapiens, UniProt P08684); assay: Progesterone binding to CYP3A4 (authors' estimate of Kd)
Experimental: Equal amounts of DMSO were added to the protein solutions to avoid buffer-related changes in fluorol emission. Fluorescence changes were monitored with λex of 455 nm and a 495 nm cutoff emission filter. […] Kinetics were analyzed using the Igor Pro software (WaveMetrics, Oswego, OR, USA).

T224A CYP3A4 = target: T1, T224A CYP3A4 (Homo sapiens, UniProt P08684, T224A); assay: Equilibrium absorbance titrations of CYP3A4 with progesterone; type: binding
T1 construct: made in house
T1 sequence (P08684 with tags, fused parts or gaps T224A): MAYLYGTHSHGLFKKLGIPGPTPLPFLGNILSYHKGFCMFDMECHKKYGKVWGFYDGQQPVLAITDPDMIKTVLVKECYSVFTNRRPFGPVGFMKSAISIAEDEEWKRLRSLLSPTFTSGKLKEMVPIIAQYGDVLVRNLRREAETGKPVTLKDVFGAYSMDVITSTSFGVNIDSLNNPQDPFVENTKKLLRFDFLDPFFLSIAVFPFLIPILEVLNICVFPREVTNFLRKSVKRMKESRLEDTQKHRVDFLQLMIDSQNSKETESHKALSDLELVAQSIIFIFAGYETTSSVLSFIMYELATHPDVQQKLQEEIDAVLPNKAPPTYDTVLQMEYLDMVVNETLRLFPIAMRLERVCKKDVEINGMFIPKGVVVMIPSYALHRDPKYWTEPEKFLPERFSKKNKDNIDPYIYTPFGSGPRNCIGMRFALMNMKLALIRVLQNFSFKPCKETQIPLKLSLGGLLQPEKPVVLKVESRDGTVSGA

WT CYP3A4 = target: T2, WT CYP3A4 (Homo sapiens, UniProt P08684); assay: as above; type: binding
T2 construct: made in house
T2 sequence (P08684 with tags, fused parts or gaps): as the sequence (P08684 with tags, fused parts or gaps T224A) above, with A204T counted along it

Sequence of CYP3A4 (P08684 whole entry): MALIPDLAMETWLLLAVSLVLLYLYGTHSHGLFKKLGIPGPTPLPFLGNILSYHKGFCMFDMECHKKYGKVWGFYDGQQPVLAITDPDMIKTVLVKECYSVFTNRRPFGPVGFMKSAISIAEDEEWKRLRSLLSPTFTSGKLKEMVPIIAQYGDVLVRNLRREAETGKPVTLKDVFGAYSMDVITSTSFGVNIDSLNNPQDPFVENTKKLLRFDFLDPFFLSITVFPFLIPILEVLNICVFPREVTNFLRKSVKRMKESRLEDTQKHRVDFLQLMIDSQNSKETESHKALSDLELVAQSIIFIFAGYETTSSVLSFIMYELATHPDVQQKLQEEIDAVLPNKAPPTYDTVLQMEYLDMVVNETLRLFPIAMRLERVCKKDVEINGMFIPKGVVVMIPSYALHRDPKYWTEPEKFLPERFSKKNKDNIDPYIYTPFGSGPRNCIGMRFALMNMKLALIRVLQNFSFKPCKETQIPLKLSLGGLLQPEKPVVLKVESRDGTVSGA

CC(=O)[C@H]1CC[C@H]2[C@@H]3CCC4=CC(=O)CC[C@]4(C)[C@H]3CC[C@]12C [progesterone]
Kd (CYP3A4; human): 45 µM
Kd (CYP3A4; our estimate, read-out: Kd, high-affinity site): 5 µM
Hill coefficient (nH) (T224A CYP3A4; 2 μM T224A CYP3A4): 1.37
S50 (concentration at half saturation) (T224A CYP3A4; 2 μM T224A CYP3A4, sigmoidal fitting): 25 ± 4 µM
Decrease in the high-spin content on elimination of Thr224 (T224A CYP3A4; PRG-bound, T224A vs WT): 9%
High-spin content in PRG-bound CYP3A4 (T224A CYP3A4; end of titration, T224A): 62%
S50 (concentration at half saturation) (WT CYP3A4; 2 μM WT CYP3A4, sigmoidal fitting): 32 ± 2 µM
High-spin content in PRG-bound CYP3A4 (WT CYP3A4; end of titration, WT): 71%
